Data as given in US20250367209A1 (SOUTHERN RESEARCH INSTITUTE, priority 2022, published 2025).
“Also recorded” adds a separate entry of the source.

Columns and labels:
[1] = Partition coefficient (LogD); assay type: physicochemical; details: Table 3; read-out: ADME LogD
Text: A computational analysis of the top five hits was then completed to assess the physical attributes of the compounds emerging from the HTS. The target profile for drug-like properties included evaluation of molecular weight (MW), total polar surface area (PSA, the surface sum of all polar atoms on the molecule), solubility, metabolic stability, and partition coefficient (LogD). In general, MW<[…] and PSA <70 Å^2 were targeted, which generally allows for blood-brain barrier (BBB) permeability. Compounds with PSA >100 A^2 are generally poor at permeating cell membranes. Solubility was targeted at >10 μM at pH 7.4 and 40-60% of compound remaining after 60 minutes of incubation in mouse or human liver microsomes (an indicator of compound stability after first-pass metabolism). LogD is the log of the ratio of concentrations of a compound in two immiscible solvents at equilibrium. Values ranging from 2-4 were targeted, typical for CNS drugs. Based on these criteria, compound no. 55 was selected as the top hit for optimization. Compound no.

primary rat neurons = assay: Modified MTT assay of Aβ toxicity in primary neurons; assay type: cell-based; details: for MTT: Table 3, Aβ toxicity in primary neurons; for Aβ toxicity / Aβ-induced membrane trafficking dysfunction, modified MTT assay: compound 0.3, 3 or 15 μM, 90-minute pretreatment, 2.5 μM Aβ, 24 hours
Text: Primary neuron cultures: All animal procedures were approved by the Institutional Animal Care and Use Committee at the University of Alabama at Birmingham (UAB). As before (Rush, et al. (2020) Neurobiol Dis 134, 104668; Voskobiynyk, et al. (2020) eLife 9, e57354), primary rat neurons were isolated from timed-pregnant Sprague-Dawley rats. Briefly, dams were euthanized with isoflurane anesthesia asphyxiation, and hippocampal tissue was isolated from E19 embryos in Hibernate E, then digested in papain for 10 minutes at 37° C. Neurons were triturated into a single cell suspension in Neurobasal supplemented with B-27, L-Glutamine, and 10% FBS, then plated in 96-well plates coated with PDL and laminin at 30,000 neurons per well in 200 uL medium or in 24-well coated plates with or without coverslips at 50,000 per well. Cultures were maintained at 37° C. with 5% CO2. Twenty-four hours after plating (DIV1), two 50% media changes with Neurobasal plus B-27 and L-Glutamine without FBS, and 5 μM cytosine β-D-arabinofuranoside was added to prevent glial proliferation. 50% media changes were performed at DIV7 and DIV14 with serum-free supplemented Neurobasal and experiments were started at DIV19.
Aβ oligomer preparation: As before (Rush, et al. (2020) Neurobiol Dis 134, 104668), lyophilized recombinant Aβ42 was dissolved in HFIP, dried overnight, then stored at −20° C. until oligomerization. To oligomerize, Aβ was dissolved in DMSO to 1 mM, then diluted to 100 µM in PBS, then sonicated and left on ice for 24 hours. Immediately prior to use, Aβ was centrifuged at 4° C. for 10 minutes at 14,000×g. Vehicle was prepared as well in identical fashion except lacking the Aβ peptide.
Aβ toxicity assays: The modified MTT and MAP2 assays were adapted from a recent study (Rush, et al. (2020) Neurobiol Dis 134, 104668). Briefly, at DIV19, media on the neurons was reduced to […], then compound was added to final concentration of 0 μM, 0.3 μM, 3 μM, or 15 μM with even amounts of DMSO. After 90-minute pretreatment with compound, 2.5 μM Aβ was added.
The modified MTT assay was performed 24 hours after Aβ application. 100 μM MTT was applied to neurons and incubated at 37° C. for one hour. Media was removed, then replaced with 15 μL 1.6% Tween20 in PBS and incubated on a shaker at 100 rpm for 5 minutes. The Tween was then removed and transferred to a 384-well clear-bottom plate and replaced with 15 μL isopropanol. Plates were again agitated for 5 minutes at RT, then isopropanol was transferred to the 384-well plate. Absorbance was then read at 590 nm on a plate reader, with 660 nm used as a reference. The ratio of Tween soluble MTT to isopropanol soluble (Tween-insoluble) MTT was calculated for each sample, then normalized to the vehicle group average.

Tau-Fyn interaction = Tau-Fyn interaction (Homo sapiens (Human), UniProt P10636); assay: Tau-Fyn PLA screening in HEK-293 cells; assay type: cell-based; details: for PLA: Table 3, Tau-Fyn PLA; for Tau-Fyn interaction in cells, Tau-Fyn PLA in HEK-293 cells: compound 15 μM, 24 hours
Sequence of Tau-Fyn interaction (P10636 other isoform, or with tags, fused parts or gaps): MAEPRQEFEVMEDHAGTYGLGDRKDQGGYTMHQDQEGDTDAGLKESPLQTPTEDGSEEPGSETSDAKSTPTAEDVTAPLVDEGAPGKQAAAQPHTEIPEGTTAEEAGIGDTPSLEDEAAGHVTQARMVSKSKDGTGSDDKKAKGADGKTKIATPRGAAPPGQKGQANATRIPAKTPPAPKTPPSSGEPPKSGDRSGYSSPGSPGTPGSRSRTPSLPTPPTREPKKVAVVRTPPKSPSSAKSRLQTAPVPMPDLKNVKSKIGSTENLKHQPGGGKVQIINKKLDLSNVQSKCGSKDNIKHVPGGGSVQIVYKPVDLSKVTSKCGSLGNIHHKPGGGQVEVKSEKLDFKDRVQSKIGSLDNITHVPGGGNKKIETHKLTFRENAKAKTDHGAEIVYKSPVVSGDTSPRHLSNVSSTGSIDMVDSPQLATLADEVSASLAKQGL
Experimental: Tau-Fyn PLA screening in HEK-293 cells: For Tau-Fyn PLA in HEK-293 cells, we used the same plasmids as before (Rush, et al. (2020) Neurobiol Dis 134, 104668): human 4R2N Tau with an N-terminal mKate2 tag in a pcDNA3.1 vector and human Fyn with an N-terminal Myc tag in a pCMV-Sport6 vector grown in Stellar E. coli. HEK-293 cells were plated on coverslips coated with PDL and laminin in a 24-well plate in DMEM supplemented with 10% FBS and 1% PenStrep. Cells were transfected with 125 ng of Tau-mKate2 and Fyn plasmids with 1.5 μL Fugene in plain DMEM. After 24 hours, compound was applied at 15 μM. Twenty-four hours after application, cells were fixed. PLA protocol was the same as above except for different primary antibodies (Tau5 1:500, Fyn3 1:250). After image acquisition, PLA density was calculated as PLA puncta (as above) divided by cell area to account for differences in confluency. Cell area was defined with ImageJ as % Area after theresholding Tau-mKate2 fluorescence because it filled the cells evenly. Puncta/cell area was then normalized to vehicle-treated slides from that experiment.

O=C(CN1CCOc2ccccc21)Nc1nnc(-c2ccccn2)[nH]1 [compound 47, 2-(2,3-DIHYDRO-4H-BENZO[B][1,4]OXAZIN-4-YL)-N-(5-(PYRIDIN-2-YL)-4H-1,2,4-TRIAZOL-3-YL)ACETAMIDE]
logD [1]: 1.8 | MTT (primary rat neurons): Active | PLA (Tau-Fyn interaction): Active

O=C(CN1C(=O)CSc2cc(F)ccc21)Nc1nnc(-c2ccccn2)[nH]1 [compound no. 12, 2-(7-FLUORO-3-oxo-2H-BENZO[B][1,4]THIAZIN-4(3H)-YL)-N-(5-(PYRIDIN-2-YL)-4H-1,2,4-TRIAZOL-3-YL)ACETAMIDE]
logD [1]: 2.4 | MTT (primary rat neurons): Active | Aβ toxicity / Aβ-induced membrane trafficking dysfunction, modified MTT assay (primary rat neurons): inhibited Aβ toxicity; also recorded: did ameliorate Aβ toxicity | PLA (Tau-Fyn interaction): Active | Tau-Fyn interaction in cells, Tau-Fyn PLA in HEK-293 cells (Tau-Fyn interaction): reduced Tau-Fyn interaction in cells

O=C(CN1C(=O)CSc2cc(Cl)ccc21)Nc1nnc(-c2ccccn2)[nH]1 [compound no. 13, 2-(7-CHLORO-3-OXO-2H-BENZO[B][1,4]THIAZIN-4(3H)-YL)-N-(5-(PYRIDIN-2-YL)-4H-1,2,4-TRIAZOL-3-YL)ACETAMIDE]
logD [1]: 3.1 | MTT (primary rat neurons): Active | Aβ toxicity / Aβ-induced membrane trafficking dysfunction, modified MTT assay (primary rat neurons): inhibited Aβ toxicity; also recorded: did ameliorate Aβ toxicity | PLA (Tau-Fyn interaction): Active | Tau-Fyn interaction in cells, Tau-Fyn PLA in HEK-293 cells (Tau-Fyn interaction): reduced Tau-Fyn interaction in cells

O=C(CN1C(=O)CSc2cc(F)c(F)cc21)Nc1nnc(-c2ccccn2)[nH]1 [compound no. 14, 2-(6,7-DIFLUORO-3-OXO-2H-BENZO[B][1,4]THIAZIN-4(3H)-YL)-N-(5-(PYRIDIN-2-YL)-4H-1,2,4-TRIAZOL-3-YL)ACETAMIDE]
logD [1]: 1.9 | MTT (primary rat neurons): Active | Aβ toxicity / Aβ-induced membrane trafficking dysfunction, modified MTT assay (primary rat neurons): did not ameliorate Aβ toxicity | PLA (Tau-Fyn interaction): Inactive | Tau-Fyn interaction in cells, Tau-Fyn PLA in HEK-293 cells (Tau-Fyn interaction): did not reduce Tau-Fyn interaction in cells

O=C(CN1CCSc2ccccc21)Nc1nnc(-c2ccccn2)[nH]1 [compound no. 20, 2-(2H-BENZO[B][1,4]THIAZIN-4(3H)-YL)-N-(5-(PYRIDIN-2-YL)-4H-1,2,4-TRIAZOL-3-YL)ACETAMIDE]
logD [1]: 2.3 | MTT (primary rat neurons): Insoluble

Cc1ccc2c(c1)SCC(=O)N2CC(=O)Nc1nnc(-c2ccccn2)[nH]1 [compound no. 23, 2-(7-METHYL-3-OXO-2H-BENZO[B][1,4]THIAZIN-4(3H)-YL)-N-(5-(PYRIDIN-2-YL)-4H-1,2,4-TRIAZOL-3-YL)ACETAMIDE]
logD [1]: 2.2 | MTT (primary rat neurons): Active | Aβ toxicity / Aβ-induced membrane trafficking dysfunction, modified MTT assay (primary rat neurons): inhibited Aβ toxicity; also recorded: did ameliorate Aβ toxicity | PLA (Tau-Fyn interaction): Active | Tau-Fyn interaction in cells, Tau-Fyn PLA in HEK-293 cells (Tau-Fyn interaction): reduced Tau-Fyn interaction in cells

O=C(CN1CCCc2ccccc21)Nc1nnc(-c2ccccn2)[nH]1 [compound no. 45, 2-(3,4-DIHYDROQUINOLIN-1(2H)-YL)-N-(5-(PYRIDIN-2-YL)-4H-1,2,4-TRIAZOL-3-YL)ACETAMIDE]
logD [1]: 2.3 | MTT (primary rat neurons): Active | Aβ toxicity / Aβ-induced membrane trafficking dysfunction, modified MTT assay (primary rat neurons): inhibited Aβ toxicity; also recorded: did ameliorate Aβ toxicity | PLA (Tau-Fyn interaction): Active | Tau-Fyn interaction in cells, Tau-Fyn PLA in HEK-293 cells (Tau-Fyn interaction): reduced Tau-Fyn interaction in cells

O=C(CCN1C(=O)CSc2ccccc21)Nc1nnc(-c2ccccn2)[nH]1 [compound no. 55]
Aβ toxicity / Aβ-induced membrane trafficking dysfunction, modified MTT assay (primary rat neurons): prevented Aβ-induced membrane trafficking dysfunction; also recorded: ameliorates Aβ toxicity; also recorded: inhibited Aβ toxicity | Tau-Fyn interaction in cells, Tau-Fyn PLA in HEK-293 cells (Tau-Fyn interaction): reduced Tau-Fyn interaction in cells

O=C(CN1CCOc2ccccc21)Nc1nnc(-c2ccccn2)[nH]1 [compound no. 69]
Aβ toxicity / Aβ-induced membrane trafficking dysfunction, modified MTT assay (primary rat neurons): prevented Aβ-induced membrane trafficking dysfunction; also recorded: ameliorates Aβ toxicity; also recorded: inhibited Aβ toxicity | Tau-Fyn interaction in cells, Tau-Fyn PLA in HEK-293 cells (Tau-Fyn interaction): reduced Tau-Fyn interaction in cells
